Source: PubChem BioAssay AID256 (DTP/NCI, 2004)
Toxic doses and inconclusive results are not listed.

Tested on: CD2F1 mice, L1210 leukemia ip, survival T/C
Assay: NCI In Vivo Anticancer Drug Screen. Data for tumor model L1210 Leukemia (intraperitoneal) in CD2F1 (CDF1) mice
Settings: endpoint: mean survival time, higher = longer survival
Description: The antitumor activity of compounds was measured in mice bearing transplantable tumors. Survival or tumor size were measured and the results are expressed as the measurement made in the treated group (T) divided by the measurement made in the vehicle treated control group (C). The tumor model used in this assay is L1210 Leukemia (intraperitoneal) in CD2F1 (CDF1) mice

[1] = dose: 50.0 mg/kg/injection, schedule: Q01DX009 (ip), vehicle: saline with Tween-80
[2] = dose: 100.0 mg/kg/injection, schedule: Q01DX009 (ip), vehicle: saline with Tween-80
[3] = dose: 200.0 mg/kg/injection, schedule: Q01DX009 (ip), vehicle: saline with Tween-80
[4] = dose: 100.0 mg/kg/injection, schedule: Q04DX003 (ip), vehicle: saline with Tween-80
[5] = dose: 200.0 mg/kg/injection, schedule: Q04DX003 (ip), vehicle: saline with Tween-80
[6] = dose: 400.0 mg/kg/injection, schedule: Q04DX003 (ip), vehicle: saline with Tween-80
[7] = dose: 25.0 mg/kg/injection, schedule: Q04DX002 (ip), vehicle: saline
[8] = dose: 100.0 mg/kg/injection, schedule: Q01DX001 (ip), vehicle: saline with Tween-80
[9] = dose: 200.0 mg/kg/injection, schedule: Q01DX001 (ip), vehicle: saline with Tween-80
[10] = dose: 400.0 mg/kg/injection, schedule: Q01DX001 (ip), vehicle: saline with Tween-80
[11] = dose: 400.0 mg/kg/injection, schedule: Q01DX009 (ip), vehicle: saline with Tween-80
[12] = dose: 50.0 mg/kg/injection, schedule: Q01DX009 (ip), vehicle: saline
[13] = dose: 100.0 mg/kg/injection, schedule: Q01DX009 (ip), vehicle: saline
[14] = dose: 200.0 mg/kg/injection, schedule: Q01DX009 (ip), vehicle: saline
[15] = dose: 400.0 mg/kg/injection, schedule: Q01DX009 (ip), vehicle: saline

## C=C(C)CC(O)CCCCCC (stereo not drawn)
[1]
  T/C: 98 % of control
[2]
  T/C: 110 % of control
[3]
  T/C: 107 % of control

## O=C1CCSc2ccccc21
dose: 75.0 mg/kg/injection, schedule: Q01DX009 (ip), vehicle: saline with Tween-80
  T/C: 95 % of control
[4]
  T/C: 104 % of control
dose: 100.0 mg/kg/injection, schedule: Q04DX003 (ip), vehicle: saline
  T/C: 100 % of control
dose: 150.0 mg/kg/injection, schedule: Q01DX009 (ip), vehicle: saline with Tween-80
  T/C: 102 % of control
[5]
  T/C: 101 % of control
dose: 200.0 mg/kg/injection, schedule: Q04DX003 (ip), vehicle: saline
  T/C: 100 % of control
dose: 300.0 mg/kg/injection, schedule: Q01DX009 (ip), vehicle: saline with Tween-80
  T/C: 96 % of control
[6]
  T/C: 102 % of control
dose: 400.0 mg/kg/injection, schedule: Q04DX003 (ip), vehicle: saline
  T/C: 100 % of control

## CSc1ccc(N2C(N)=NC(N)=NC2(C)C)cc1
[7]
  T/C: 95 % of control
dose: 50.0 mg/kg/injection, schedule: Q04DX002 (ip), vehicle: saline
  T/C: 91 % of control

## COC1OC2COc3ccccc3OC2C(N)C1N(C)c1ccccc1 (stereo not drawn)
dose: 75.0 mg/kg/injection, schedule: Q01DX001 (ip), vehicle: saline with Tween-80
  T/C: 100 % of control
dose: 150.0 mg/kg/injection, schedule: Q01DX001 (ip), vehicle: saline with Tween-80
  T/C: 97 % of control

## Oc1ccccc1/C=N\N=C\c1ccccc1O
[8]
  T/C: 97 % of control
[9]
  T/C: 106 % of control
[10]
  T/C: 100 % of control

## O=C(Nc1ccccc1)O/N=C(/c1ccccc1)c1cccnc1
dose: 100.0 mg/kg/injection, schedule: Q01DX001 (ip), vehicle: other
  T/C: 104 % of control
dose: 200.0 mg/kg/injection, schedule: Q01DX001 (ip), vehicle: other
  T/C: 104 % of control
dose: 400.0 mg/kg/injection, schedule: Q01DX001 (ip), vehicle: other
  T/C: 98 % of control

## Cc1ccc(N2OCCN(C(=O)c3cc([N+](=O)[O-])cc([N+](=O)[O-])c3)C2c2ccccc2)cc1 (stereo not drawn)
[2]
  T/C: 91 % of control
[3]
  T/C: 95 % of control
[11]
  T/C: 91 % of control

## C=CC(=O)N1CCN(C(=O)C=C)c2cc(C)c(C)cc21
dose: 25.0 mg/kg/injection, schedule: Q01DX009 (ip), vehicle: saline
  T/C: 101 % of control
[12]
  T/C: 101 % of control
[13]
  T/C: 100 % of control

## Cc1ccccc1CC#N
dose: 12.5 mg/kg/injection, schedule: Q04DX002 (ip), vehicle: saline
  T/C: 96 % of control
[7]
  T/C: 99 % of control

## NC(=O)CC(N)C(=O)O (stereo not drawn)
dose: 50.0 mg/kg/injection, schedule: Q01DX009 (ip), vehicle: other
  T/C: 102 % of control
[12]
  T/C: 97 % of control
dose: 100.0 mg/kg/injection, schedule: Q01DX009 (ip), vehicle: other
  T/C: 98 % of control
[13]
  T/C: 101 % of control
dose: 200.0 mg/kg/injection, schedule: Q01DX009 (ip), vehicle: other
  T/C: 98 % of control
[14]
  T/C: 103 % of control
dose: 400.0 mg/kg/injection, schedule: Q01DX009 (ip), vehicle: other
  T/C: 104 % of control
[15]
  T/C: 103 % of control
dose: 800.0 mg/kg/injection, schedule: Q01DX009 (ip), vehicle: other
  T/C: 104 % of control
dose: 800.0 mg/kg/injection, schedule: Q01DX009 (ip), vehicle: saline
  T/C: 100 % of control
dose: 1600.0 mg/kg/injection, schedule: Q01DX009 (ip), vehicle: other
  T/C: 98 % of control
dose: 1600.0 mg/kg/injection, schedule: Q01DX009 (ip), vehicle: saline
  T/C: 101 % of control

## c1ccc(-c2nc(-c3ccccc3)n3nc4c(c3c2-c2ccccc2)CCCCCC4)cc1
dose: 100.0 mg/kg/injection, schedule: Q01DX001 (ip), vehicle: saline
  T/C: 112 % of control
dose: 200.0 mg/kg/injection, schedule: Q01DX001 (ip), vehicle: saline
  T/C: 108 % of control
dose: 400.0 mg/kg/injection, schedule: Q01DX001 (ip), vehicle: saline
  T/C: 87 % of control

## O=C(O)c1ccsc1
dose: 37.5 mg/kg/injection, schedule: Q04DX003 (ip), vehicle: saline with Tween-80
  T/C: 97 % of control
dose: 75.0 mg/kg/injection, schedule: Q04DX003 (ip), vehicle: saline with Tween-80
  T/C: 97 % of control

## CCC(c1ccc(O)c(C2CCCCC2)c1)C(CC)c1ccc(OC(=O)c2ccccc2)c(C2CCCCC2)c1 (stereo not drawn)
dose: 75.0 mg/kg/injection, schedule: Q01DX001 (ip), vehicle: saline
  T/C: 109 % of control
dose: 150.0 mg/kg/injection, schedule: Q01DX001 (ip), vehicle: saline
  T/C: 100 % of control
dose: 300.0 mg/kg/injection, schedule: Q01DX001 (ip), vehicle: saline
  T/C: 106 % of control

## Cc1oc(N)c(C#N)c1C
[2]
  T/C: 101 % of control
[4]
  T/C: 102 % of control
[3]
  T/C: 104 % of control
[5]
  T/C: 96 % of control
[11]
  T/C: 106 % of control
[6]
  T/C: 102 % of control

## CN(C)C(=O)C(O)C1CCCCC1 (stereo not drawn)
dose: 100.0 mg/kg/injection, schedule: Q04DX002 (ip), vehicle: saline with Tween-80
  T/C: 94 % of control
dose: 200.0 mg/kg/injection, schedule: Q04DX002 (ip), vehicle: saline with Tween-80
  T/C: 94 % of control
dose: 400.0 mg/kg/injection, schedule: Q04DX002 (ip), vehicle: saline with Tween-80
  T/C: 94 % of control

## CC(=S)NC(O)C(=O)c1ccccc1 (stereo not drawn)
dose: 12.5 mg/kg/injection, schedule: Q01DX009 (ip), vehicle: saline with Tween-80
  T/C: 101 % of control
dose: 25.0 mg/kg/injection, schedule: Q01DX009 (ip), vehicle: saline with Tween-80
  T/C: 98 % of control
[1]
  T/C: 98 % of control
[2]
  T/C: 104 % of control
[3]
  T/C: 93 % of control
[11]
  T/C: 115 % of control

## CC(=O)c1ccc(N=C2C=CC(=O)O2)cc1
[4]
  T/C: 102 % of control
[5]
  T/C: 96 % of control
[6]
  T/C: 96 % of control

## CC(=O)NCC(O)(C1CC1)C1CC1
dose: 100.0 mg/kg/injection, schedule: Q04DX002 (ip), vehicle: saline
  T/C: 102 % of control
dose: 200.0 mg/kg/injection, schedule: Q04DX002 (ip), vehicle: saline
  T/C: 98 % of control
dose: 400.0 mg/kg/injection, schedule: Q04DX002 (ip), vehicle: saline
  T/C: 94 % of control

## CC(=O)C(c1ccccc1)N(C)C(=O)c1ccccc1 (stereo not drawn)
[13]
  T/C: 95 % of control
[14]
  T/C: 94 % of control
[15]
  T/C: 104 % of control

## Fc1c(F)c(F)c(-c2nnc(-c3c(F)c(F)c(F)c(F)c3F)o2)c(F)c1F
[8]
  T/C: 96 % of control
[9]
  T/C: 96 % of control
[10]
  T/C: 95 % of control

## Nc1ccn(C2OC(CO)C3OP(=O)(O)OC32)c(=O)n1 (stereo not drawn)
dose: 12.5 mg/kg/injection, schedule: Q01DX005 (ip), vehicle: water
  T/C: 96 % of control
dose: 25.0 mg/kg/injection, schedule: Q01DX005 (ip), vehicle: water
  T/C: 99 % of control
dose: 50.0 mg/kg/injection, schedule: Q01DX005 (ip), vehicle: water
  T/C: 99 % of control
dose: 100.0 mg/kg/injection, schedule: Q01DX005 (ip), vehicle: water
  T/C: 94 % of control
dose: 200.0 mg/kg/injection, schedule: Q01DX005 (ip), vehicle: water
  T/C: 96 % of control

## Cc1ccc(NC(=O)N(CCCl)N=O)cc1Cl
dose: 13.0 mg/kg/injection, schedule: Q01DX001 (ip), vehicle: carboxymethylcellulose (CMC)
  T/C: 176 % of control

## CS(=O)(=O)OC1CS(=O)(=O)Cc2ccccc21 (stereo not drawn)
dose: 100.0 mg/kg/injection, schedule: Q01DX001 (ip), vehicle: carboxymethylcellulose (CMC)
  T/C: 101 % of control
dose: 200.0 mg/kg/injection, schedule: Q01DX001 (ip), vehicle: carboxymethylcellulose (CMC)
  T/C: 101 % of control
dose: 400.0 mg/kg/injection, schedule: Q01DX001 (ip), vehicle: carboxymethylcellulose (CMC)
  T/C: 101 % of control

## CC(=O)OCC(O)C(O)C(O)C(O)CO (stereo not drawn)
[2]
  T/C: 109 % of control
[3]
  T/C: 94 % of control
[11]
  T/C: 96 % of control

## O=C(CNC(=O)c1ccccc1)N/N=C/c1ccccc1O
[2]
  T/C: 94 % of control
[3]
  T/C: 95 % of control
[11]
  T/C: 89 % of control

## CC(=O)C1=CCC2C3CC=C4CC(OC#N)CCC4(C)C3CCC12C (stereo not drawn)
[2]
  T/C: 97 % of control
[3]
  T/C: 92 % of control
[11]
  T/C: 89 % of control

## NC1CCC(Br)C2CCCCC12 (stereo not drawn)
dose: 5.0 mg/kg/injection, schedule: Q01DX001 (ip), vehicle: saline with Tween-80
  T/C: 103 % of control
dose: 10.0 mg/kg/injection, schedule: Q01DX001 (ip), vehicle: saline with Tween-80
  T/C: 103 % of control
dose: 20.0 mg/kg/injection, schedule: Q01DX001 (ip), vehicle: saline with Tween-80
  T/C: 104 % of control
